In patent US20220282271A1, “HERBICIDE RESISTANT PLANTS AND METHODS OF MAKING AND USING” (OFFICE OF INNOVATION ADVANCEMENT AND COMMERCIALIZATION, priority 2019, published 2022):

What was measured:
[1] = molecular target: recombinant variant E. indica PPO1 A212T (Eleusine indica, UniProt A0A6G5XNV7, A212T); assay: In vitro PPO enzyme activity inhibition, variant PPO1 A212T; type: biochemical
Excerpt: Effects of A212T substitution were studied using the E. indica backbone. The wild-type E. indica PPO1 and the E. indica PPO1 A212T variants were synthesized de novo and subcloned into pRSetB plasmid (Invitrogen, Carlsbad, Calif.). The complete description of expression and purification of E. indica PPO1 and E. indica PPO1 A212T variant proteins were referenced to the method described for PPO2 by Rangani et al. (2019, Frontiers in Plant Sci., 10:568). Six PPO inhibitors, belonging to five different chemical families, were evaluated on the PPO enzyme activity at a concentrations ranging from 5.00×10^−5M to 5.12×10^−12M. Oxadiazon, sulfentrazone, saflufenacil and lactofen are from the class of oxadiazole, triazolinone, pyrimidinedione, and diphenyl ether, respectively. Flumioxazin and trifludimoxazin are from the same chemical family, N-phenylphthalimide. […] The assay was replicated twice.

[2] = test system: PPO1 from S E. indica biotype (Ala212) expressed in hemG mutant E. coli strain SASX38; assay: hemG mutant E. coli SASX38 complementation assay, S PPO1; type: cell-based, Eleusine indica; settings: LB medium; 0, 10, 50, 100, 200 μM tested; 37° C., 20 h
Excerpt: Two putative PPO-inhibitor resistant (R-) and susceptible (S-) plasmids were created to test the role of the chloroplast-targeted PPO1 in the E. indica biotypes. The PPO1 from R1, R2 and S E. indica biotypes were cloned into the pBAD-TOPO expression vector using the pBAD TOPO™ TA Expression kit (Invitrogen, Carlsbad, Calif.), respectively. The PPO1 product was amplified using the same PCR primers and PCR reaction system as cDNA sequencing, so that the PPO1 translation began at the ATG start codon. Three different pBAD-TOPO PPO1 constructs were created and sequenced to confirm they were identical with the PPO1 gene from R1, R2 and S E. indica biotypes and there were no other nucleotide polymorphisms in the cloning experiment. R- and S-PPO1 plasmids were used to transform a hemG mutant Escherichia coli strain SASX38 by electroporation. The SASX38 mutant strain was grown on LB medium supplemented with 10 μg/mL hematin. Expression of the PPO1 in the transformed colonies of the SASX38 mutant strain were induced on LB medium with 2% L-arabinose. […]

[3] = test system: Albizia julibrissin; assay: Weed control screen: silktree; type: in vivo; settings: 1.0 lb ai/a, applied approximately 3 weeks after emergence, relative to non-treated
Procedure: (§1) Herbicides were applied at a spray volume of 280 L/ha with no adjuvant added to any herbicide mixture. Weed control was rated on a 0 to 100 percent phytoxicity scale with 0 being no plant injury/phytotoxicity and 100 being complete plant dessication. Twenty-one weeds were evaluated for response to herbicides (Table 3). The weeds selected were a mixture of weeds common in agronomic and horticultural crops. Herbicide was applied to all species approximately 3 weeks after emergence. Plant phytotoxicity rated as percent control relative to the non-treated.

[4] = test system: Crotalaria spectabilis; assay: Weed control screen: showy crotalaria; type: in vivo; settings: 1.0 lb ai/a, applied approximately 3 weeks after emergence, relative to non-treated
Procedure: as §1

[5] = test system: Physalis angulata; assay: Weed control screen: cutleaf groundcherry; type: in vivo; settings: 1.0 lb ai/a, applied approximately 3 weeks after emergence, relative to non-treated
Procedure: as §1

[6] = test system: Ipomoea lacunosa; assay: Weed control screen: pitted morningglory; type: in vivo; settings: 1.0 lb ai/a, applied approximately 3 weeks after emergence, relative to non-treated
Procedure: as §1

[7] = test system: Sida spinosa; assay: Weed control screen: prickly sida; type: in vivo; settings: 1.0 lb ai/a, applied approximately 3 weeks after emergence, relative to non-treated
Procedure: as §1

[8] = test system: Ipomoea hederacea; assay: Weed control screen: entireleaf morningglory; type: in vivo; settings: 1.0 lb ai/a, applied approximately 3 weeks after emergence, relative to non-treated
Procedure: as §1

[9] = test system: Jaquemontia tamnifolia; assay: Weed control screen: smallflower morningglory; type: in vivo; settings: 1.0 lb ai/a, applied approximately 3 weeks after emergence, relative to non-treated
Procedure: as §1

[10] = test system: Sorghum halapense; assay: Weed control screen: johnsongrass; type: in vivo; settings: 1.0 lb ai/a, applied approximately 3 weeks after emergence, relative to non-treated
Procedure: as §1

[11] = test system: Eleusine indica; assay: Weed control screen: goosegrass; type: in vivo; settings: 1.0 lb ai/a, applied approximately 3 weeks after emergence, relative to non-treated
Procedure: as §1

[12] = test system: Amaranthus palmeri; assay: Weed control screen: glyphosate resistant palmer amaranth; type: in vivo; settings: 1.0 lb ai/a, applied approximately 3 weeks after emergence, relative to non-treated
Procedure: as §1

[13] = test system: Twenty-one weeds common in agronomic and horticultural crops; assay: Weed control screen: summary over the twenty-one weeds; type: in vivo
Procedure: as §1

Chain of recombinant variant E. indica PPO1 A212T (A0A6G5XNV7 entry or part of it A212T): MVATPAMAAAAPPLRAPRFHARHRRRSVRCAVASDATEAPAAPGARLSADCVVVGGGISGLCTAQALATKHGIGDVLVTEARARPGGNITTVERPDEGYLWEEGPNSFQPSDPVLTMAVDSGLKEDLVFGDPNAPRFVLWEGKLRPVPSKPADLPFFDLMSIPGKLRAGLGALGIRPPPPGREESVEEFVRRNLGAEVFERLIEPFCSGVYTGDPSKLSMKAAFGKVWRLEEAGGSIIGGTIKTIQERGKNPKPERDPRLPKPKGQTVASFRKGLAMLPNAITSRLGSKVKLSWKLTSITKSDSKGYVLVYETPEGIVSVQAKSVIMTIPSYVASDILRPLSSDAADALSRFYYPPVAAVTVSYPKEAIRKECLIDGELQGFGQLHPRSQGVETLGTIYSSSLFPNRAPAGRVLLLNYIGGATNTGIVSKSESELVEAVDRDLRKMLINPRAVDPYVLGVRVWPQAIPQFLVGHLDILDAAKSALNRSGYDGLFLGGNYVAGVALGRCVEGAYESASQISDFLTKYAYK

## CC(C)Oc1cc(-n2nc(C(C)(C)C)oc2=O)c(Cl)cc1Cl [Oxadiazon, oxadiazon]
[1]
  IC50: > 10 µM
[1]; read-out: Variant E. indica PPO1 A212T % inhibition
  inhibition at 10 µM: 16%
[2]
  Concentration in medium that inhibited the growth of the transformed E. coli: 50 µM
[3]
  Percent control (0 to 100): 50%
[4]
  Percent control (0 to 100): 99%
[5]
  Percent control (0 to 100): 70%
[6]
  Percent control (0 to 100): 100%
[7]
  Percent control (0 to 100): 90%
[8]
  Percent control (0 to 100): 100%
[9]
  Percent control (0 to 100): 90%
[10]
  Percent control (0 to 100): 100%
[11]
  Percent control (0 to 100): 100%
[12]
  Percent control (0 to 100): 75%
[13]; 1.0 lb ai/a
  Number of the 21 weeds evaluated controlled at a level greater than or equal to 90%: 13 weeds
[13]; 1.0 lb ai/a each
  Number of the 21 weeds controlled greater than or equivalent to glyphosate: 18 weeds
